Square brackets hold non-standard residues; d marks the D form. Peptide text beside a SMILES is read from it. * marks the point of attachment. His(Trt) = N[C@@H](Cc1cn(C(c2ccccc2)(c2ccccc2)c2ccccc2)cn1)C(=O)O; dPhe(4-Cl) = N[C@H](Cc1ccc(Cl)cc1)C(=O)O; dPhe(4-Me) = Cc1ccc(C[C@@H](N)C(=O)O)cc1; d3Pal = N[C@H](Cc1cccnc1)C(=O)O; Octanoyl = CCCCCCCC(=O)*
Target: T1, GPR39 (Homo sapiens, UniProt O43194)
T1 sequence (O43194 1-453): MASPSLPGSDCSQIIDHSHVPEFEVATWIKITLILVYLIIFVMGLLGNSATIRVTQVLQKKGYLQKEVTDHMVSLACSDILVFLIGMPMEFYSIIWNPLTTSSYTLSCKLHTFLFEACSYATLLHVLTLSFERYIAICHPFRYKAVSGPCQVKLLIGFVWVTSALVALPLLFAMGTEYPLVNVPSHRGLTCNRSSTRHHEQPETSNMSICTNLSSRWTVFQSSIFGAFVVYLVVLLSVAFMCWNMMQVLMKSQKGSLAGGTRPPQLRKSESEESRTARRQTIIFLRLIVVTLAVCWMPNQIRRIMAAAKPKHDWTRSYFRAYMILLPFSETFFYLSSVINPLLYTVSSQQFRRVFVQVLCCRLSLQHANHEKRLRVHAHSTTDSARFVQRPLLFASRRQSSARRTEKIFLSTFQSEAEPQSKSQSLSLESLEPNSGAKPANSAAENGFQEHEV
Experiment: luciferase assay system (SRE luciferase reporter gene, CV-1 cells expressing GPR39)
Type: cell-based
Set-up: expressed in transfected cells; host or cells: CV-1 fibroblast cell line (Korea Cell Line Bank), adenoviral transduction at 50 MOI

`CCCCCCCC(=O)NCCCC[C@H](NC(=O)[C@@H](N)Cc1cn(S(=O)(=O)c2ccc(C)cc2)cn1)C(=O)N[C@H](Cc1ccc(C)cc1)C(=O)N[C@@H](Cc1ccc(O)cc1)C(=O)O` [HKFY-75, ((R)-2-((S)-2-((S)-2-amino-3-(1-tosyl-1H-imidazol-4-yl)propanamido)-6-octanamidohexanamido)-3-(p-tolyl)propanoyl)-L-tyrosine] was tested, and the “ECmax (−fold induction over basal)” value was 15.9 ± 4.12 fold induction over basal.

In the case of `CCCCCCCC(=O)NCCCC[C@H](NC(=O)[C@@H](N)Cc1cn(C(c2ccccc2)(c2ccccc2)c2ccccc2)cn1)C(=O)N[C@H](Cc1ccc(C)cc1)C(=O)N[C@@H](Cc1ccc(O)cc1)C(=O)O` [HKFY-30, ((R)-2-((S)-2-((S)-2-amino-3-(1-trityl-1H-imidazol-4-yl)propanamido)-6-octanamidohexanamido)-3-(p-tolyl)propanoyl)-L-tyrosine] (H-[His(Trt)]K(Octanoyl)[dPhe(4-Me)]Y-OH), the “ECmax (−fold induction over basal)” value is reported as 23.88 ± 3.04 fold induction over basal, the “activity level for GPR39 (in words)” value (comment on Table 3) is reported as “higher activity level than other HKFY derivatives” and the “activity and ECmax value for GPR39 (in words)” value (comment on Table 3, derivatives composed of d-Phe(methyl)) is reported as “most excellent activity and high ECmax value”.

`CCCCCCCC(=O)NCCCC[C@H](NC(=O)[C@@H](N)Cc1cn(C(c2ccccc2)(c2ccccc2)c2ccccc2)cn1)C(=O)N[C@H](Cc1cccnc1)C(=O)N[C@@H](Cc1ccc(O)cc1)C(=O)O` [HKFY-73, ((R)-2-((S)-2-((S)-2-amino-3-(1-trityl-1H-imidazol-4-yl)propanamido)-6-octanamidohexanamido)-3-(pyridin-3-yl)propanoyl)-L-tyrosine] (H-[His(Trt)]K(Octanoyl)[d3Pal]Y-OH) was tested, and the “ECmax (−fold induction over basal)” value was 11.6 ± 2.3 fold induction over basal.

In the case of `CCCCCCCC(=O)NCCCC[C@H](NC(=O)[C@@H](N)Cc1cn(C(c2ccccc2)(c2ccccc2)c2ccccc2)cn1)C(=O)N[C@@H](Cc1ccccc1)C(=O)N[C@@H](Cc1ccc(O)cc1)C(=O)N[C@@H](CO)C(=O)N[C@@H](CC(=O)O)C(=O)N[C@@H](CCC(N)=O)C(=O)N[C@@H](CCC(N)=O)C(=O)N[C@@H](C)C(=O)N[C@@H](CCCNC(=N)N)C(=O)N[C@@H](Cc1ccccc1)C(N)=O` [HKFY-38, (3S,6S,9S,12S,15S)-15-((S)-2-amino-3-(1-trityl-1H-imidazol-4-yl)propanamido)-12-benzyl-3-(((6S,9S,12S,15S)-1,18-diamino-6-(((S)-1-amino-1-oxo-3-phenylpropan-2-yl)carbamoyl)-12-(3-amino-3-oxopropyl)-1-imino-9-methyl-8,11,14,18-tetraoxo-2,7,10,13-tetraazaoctadecan-15-yl)carbamoyl)-9-(4-hydroxybenzyl)-6-(hydroxymethyl)-5,8,11,14,21-pentaoxo-4,7,10,13,20-pentaazaoctacosanoic acid] (H-[His(Trt)]K(Octanoyl)FYSDQQARF-NH2), the “ECmax (−fold induction over basal)” value is reported as 16.5 ± 0.02 fold induction over basal.

`CCCCCCCC(=O)NCCCC[C@H](NC(=O)[C@@H](N)Cc1cn(C(c2ccccc2)(c2ccccc2)c2ccccc2)cn1)C(=O)N[C@H](Cc1ccc(Cl)cc1)C(=O)N[C@H](Cc1ccc(O)cc1)C(=O)O` [HKFY-15, ((R)-2-((S)-2-((S)-2-amino-3-(1-trityl-1H-imidazol-4-yl)propanamido)-6-octanamidohexanamido)-3-(4-chlorophenyl)propanoyl)-D-tyrosine] (H-[His(Trt)]K(Octanoyl)[dPhe(4-Cl)][dY]-OH) was tested, and the “ECmax (−fold induction over basal)” value was 24.7 ± 2.6 fold induction over basal.

With `CCCCCCCC(=O)NCCCC[C@H](NC(=O)[C@@H](N)CC1=CN(CCC2CCCCC2)CN1CCC1CCCCC1)C(=O)N[C@@H](Cc1ccccc1)C(=O)N[C@@H](Cc1ccc(O)cc1)C(=O)O` [HKFY-8, N2-((S)-2-amino-3-(1,3-bis(2-cyclohexylethyl)-2,3-dihydro-1H-imidazol-4-yl)propanoyl)-N6-octanoyl-L-lysyl-L-phenylalanyl-L-tyrosine] the “ECmax (−fold induction over basal)” value was 17.3±1.22 fold induction over basal.
